Experimental data as given in the CheMixHub viscosity set.

Experiment: xn = mol fraction of the nth substance listed

CCCCN + CCC(=O)O
viscosity [mPa·s], 101 kPa
Details | x2 = 0.2 | x2 = 0.3 | x2 = 0.4 | x2 = 0.5 | x2 = 0.6 | x2 = 0.7 | x2 = 0.75 | x2 = 0.8 | x2 = 0.875
293.15 K | 1.82 | 15.13 | 63.74 | 0.5662 | 178 | 54.56 | 30.14 | 18.72 | 5.08
298.15 K | 1.75 | 12.72 | 51.68 | 0.4002 | 137.5 | 43.2 | 25.03 | 15.68 | 4.48
303.15 K | 1.63 | 10.92 | 41.89 | – | 107.7 | 35.21 | 20.17 | 13 | 4.05
308.15 K | 1.56 | 9.48 | 34.98 | – | 85.1 | 29.21 | 17.49 | 11.15 | 3.57
313.15 K | 1.44 | 8.34 | 29.06 | 176.5 | 71.2 | 24.51 | 15.02 | – | 3.09
313.5 K | – | – | – | – | – | – | – | 9.51 | –
318.15 K | 1.41 | 7.31 | 24.58 | 136.6 | 57.9 | 20.64 | 12.59 | 8.34 | 2.86
323.15 K | – | 6.66 | 21.02 | 112.7 | 47.7 | 17.83 | 11.15 | 7.33 | 2.73

CCCCN + CCC(C)=O
303.15 K, 101.33 kPa
Details | viscosity [mPa·s]
x1 = 0.0943 | 0.482
x1 = 0.181 | 0.593
x1 = 0.2823 | 0.732
x1 = 0.4616 | 0.924
x1 = 0.5768 | 0.967
x1 = 0.674 | 0.914
x1 = 0.7814 | 0.819
x1 = 0.891 | 0.671

CCCCN + CCC(C)O
303.15 K, 101 kPa
Details | viscosity [mPa·s]
x1 = 0.01013 | 2.438
x1 = 0.02003 | 2.41
x1 = 0.03045 | 2.381
x1 = 0.03818 | 2.364
x1 = 0.05108 | 2.332
x1 = 0.05904 | 2.313
x1 = 0.07204 | 2.283
x1 = 0.08279 | 2.26
x1 = 0.09543 | 2.229

CC[N+](=O)[O-] + CCC(C)O
viscosity [mPa·s], 101.33 kPa
Details | 293.15 K | 303.15 K | 313.15 K
x2 = 0.05 | 0.679 | 0.605 | 0.543
x2 = 0.1 | 0.68 | 0.601 | 0.538
x2 = 0.15 | 0.684 | 0.604 | 0.536
x2 = 0.2001 | 0.704 | 0.616 | 0.542
x2 = 0.25 | 0.727 | 0.632 | 0.555
x2 = 0.3002 | 0.759 | 0.652 | 0.569
x2 = 0.35 | 0.793 | 0.676 | 0.586
x2 = 0.4 | 0.845 | 0.716 | 0.61
x2 = 0.45 | 0.904 | 0.75 | 0.64
x2 = 0.5 | 0.971 | 0.8 | 0.675
x2 = 0.55 | 1.034 | 0.847 | 0.707
x2 = 0.5999 | 1.123 | 0.909 | 0.75
x2 = 0.6499 | 1.236 | 0.98 | 0.801
x2 = 0.7 | 1.378 | 1.07 | 0.862
x2 = 0.7497 | 1.516 | 1.169 | 0.935
x2 = 0.8 | 1.723 | 1.319 | 1.026
x2 = 0.8499 | 1.983 | 1.484 | 1.144
x2 = 0.8998 | 2.353 | 1.724 | 1.304
x2 = 0.9499 | 2.873 | 2.05 | 1.511

Cc1ccncc1 + CCC(C)O
298.15 K, 101.33 kPa
Details | viscosity [mPa·s]
x2 = 0.0808 | 0.8992
x2 = 0.1812 | 0.9547
x2 = 0.2378 | 0.9923
x2 = 0.3187 | 1.047
x2 = 0.3221 | 1.052
x2 = 0.3999 | 1.131
x2 = 0.4574 | 1.186
x2 = 0.5582 | 1.328
x2 = 0.6284 | 1.445
x2 = 0.7034 | 1.608
x2 = 0.8528 | 2.092
x2 = 0.9272 | 2.446

CCCC(=O)OCC + CCCCCC
303.15 K, 101 kPa
Details | viscosity [mPa·s]
x1 = 0.1354 | 0.3067
x1 = 0.2995 | 0.3404
x1 = 0.3884 | 0.3564
x1 = 0.4879 | 0.388
x1 = 0.7244 | 0.4602

CCCCN + CCCCCC
viscosity [mPa·s]
Details | 298.15 K | 303.15 K | 313.15 K
101.3 kPa, x2 = 0.0995 | 0.4331 | – | 0.3573
101.3 kPa, x2 = 0.2009 | 0.4017 | – | 0.3331
101.3 kPa, x2 = 0.2987 | 0.3782 | – | 0.3159
101.3 kPa, x2 = 0.4003 | 0.3564 | – | 0.3002
101.3 kPa, x2 = 0.4987 | 0.3397 | – | 0.2875
101.3 kPa, x2 = 0.5995 | 0.3249 | – | 0.2767
101.3 kPa, x2 = 0.7021 | 0.3127 | – | 0.2675
101.3 kPa, x2 = 0.8015 | 0.3036 | – | 0.2608
101.3 kPa, x2 = 0.8999 | 0.2974 | – | 0.2562
101.33 kPa, x1 = 0.1342 | – | 0.266 | –
101.33 kPa, x1 = 0.2674 | – | 0.262 | –
101.33 kPa, x1 = 0.4006 | – | 0.245 | –
101.33 kPa, x1 = 0.5268 | – | 0.252 | –
101.33 kPa, x1 = 0.6349 | – | 0.281 | –
101.33 kPa, x1 = 0.7491 | – | 0.318 | –
101.33 kPa, x1 = 0.8215 | – | 0.368 | –
101.33 kPa, x1 = 0.9178 | – | 0.445 | –

CCCC(=O)OCC + CCCCCCC
viscosity [mPa·s], 101.3 kPa
Details | 308.15 K | 318.15 K
x1 = 0.0502 | 0.356 | 0.325
x1 = 0.1025 | 0.36 | 0.33
x1 = 0.2204 | 0.373 | 0.344
x1 = 0.2988 | 0.383 | 0.354
x1 = 0.3991 | 0.398 | 0.371
x1 = 0.5188 | 0.421 | 0.393
x1 = 0.6073 | 0.442 | 0.415
x1 = 0.6954 | 0.467 | 0.436
x1 = 0.8003 | 0.499 | 0.469
x1 = 0.9011 | 0.544 | 0.518
x1 = 0.9513 | 0.57 | 0.539

CCCCC(CC)COP(=O)(OCC(CC)CCCC)OCC(CC)CCCC (centres undefined) + CCCCCCC
viscosity [mPa·s], 101 kPa
Details | x1 = 0.0981 | x1 = 0.2035 | x1 = 0.2861 | x1 = 0.4005 | x1 = 0.4721 | x1 = 0.5804 | x1 = 0.7028 | x1 = 0.8061 | x1 = 0.9053
298.15 K | 0.691 | 1.161 | 1.648 | 2.531 | 3.204 | 4.44 | 6.106 | 7.818 | 9.599
303.15 K | 0.645 | 1.071 | 1.509 | 2.267 | 2.848 | 3.886 | 5.277 | 6.674 | 8.111
308.15 K | 0.604 | 0.992 | 1.377 | 2.046 | 2.547 | 3.434 | 4.599 | 5.747 | 6.914

CCCCN + CCCCCCC
303.15 K, 101.33 kPa
Details | viscosity [mPa·s]
x1 = 0.1262 | 0.355
x1 = 0.243 | 0.345
x1 = 0.3214 | 0.358
x1 = 0.4018 | 0.358
x1 = 0.4973 | 0.362
x1 = 0.6195 | 0.381
x1 = 0.7804 | 0.434
x1 = 0.8723 | 0.462

CCCCC(CC)COP(=O)(OCC(CC)CCCC)OCC(CC)CCCC (centres undefined) + CCCCCCCC
viscosity [mPa·s], 101 kPa
Details | x1 = 0.098 | x1 = 0.1989 | x1 = 0.2979 | x1 = 0.381 | x1 = 0.489 | x1 = 0.5902 | x1 = 0.693 | x1 = 0.7952 | x1 = 0.9044
298.15 K | 0.83 | 1.287 | 1.852 | 2.52 | 3.555 | 4.707 | 6.118 | 7.688 | 9.668
303.15 K | 0.773 | 1.183 | 1.674 | 2.264 | 3.136 | 4.108 | 5.242 | 6.565 | 8.204
308.15 K | 0.722 | 1.074 | 1.498 | 2.016 | 2.759 | 3.592 | 4.585 | 5.632 | 6.964

CCCCN + CCCCCCCC
303.15 K, 101.33 kPa
Details | viscosity [mPa·s]
x1 = 0.1275 | 0.462
x1 = 0.2962 | 0.441
x1 = 0.4015 | 0.433
x1 = 0.5214 | 0.428
x1 = 0.6438 | 0.42
x1 = 0.7573 | 0.434
x1 = 0.9231 | 0.478

CCC(C)(C)C + CCCCCCCCCCCC
298 K, 101.33 kPa
Details | viscosity [mPa·s]
x1 = 0.0995 | 1.264
x1 = 0.2015 | 1.152
x1 = 0.2997 | 1.056
x1 = 0.3975 | 0.944
x1 = 0.5013 | 0.8256
x1 = 0.6011 | 0.7202
x1 = 0.7 | 0.6152
x1 = 0.7997 | 0.5206
x1 = 0.9002 | 0.4256

CCC(C)(C)C + CCCCCCCCCCCCCCCC
298 K, 101.33 kPa
Details | viscosity [mPa·s]
x1 = 0.1107 | 2.735
x1 = 0.2098 | 2.405
x1 = 0.3108 | 2.071
x1 = 0.4014 | 1.788
x1 = 0.5013 | 1.486
x1 = 0.6057 | 1.211
x1 = 0.7048 | 0.9511
x1 = 0.8022 | 0.711
x1 = 0.9014 | 0.5046

CCCCN + CCCCCCCCCCO
viscosity [mPa·s], 101.33 kPa
Details | x1 = 0.1009 | x1 = 0.1875 | x1 = 0.2926 | x1 = 0.4082 | x1 = 0.4885 | x1 = 0.5888 | x1 = 0.7198 | x1 = 0.8119 | x1 = 0.9029
303.15 K | 7.619 | 6.568 | 5.323 | 4.051 | 3.232 | 2.336 | 1.398 | 0.9303 | 0.6273
313.15 K | 5.926 | 5.059 | 4.058 | 3.072 | 2.462 | 1.813 | 1.151 | 0.8181 | 0.5744

CCCCN + CCCCCCCCO
viscosity [mPa·s], 101.33 kPa
Details | 303.15 K | 313.15 K | 323.15 K
x1 = 0.094 | 5.27 | 3.765 | –
x1 = 0.1 | 5.075 | 3.779 | 2.828
x1 = 0.1949 | 4.391 | 3.129 | –
x1 = 0.2011 | 4.061 | 3.065 | 2.358
x1 = 0.288 | 3.626 | 2.585 | –
x1 = 0.3 | 3.239 | 2.487 | 1.942
x1 = 0.4015 | 2.547 | 1.984 | 1.576
x1 = 0.4199 | 2.665 | 1.929 | –
x1 = 0.5003 | 1.995 | 1.59 | 1.289
x1 = 0.5164 | 2.065 | 1.521 | –
x1 = 0.6002 | 1.528 | 1.235 | 1.021
x1 = 0.619 | 1.523 | 1.154 | –
x1 = 0.7003 | 1.141 | 0.945 | 0.791
x1 = 0.7192 | 1.103 | 0.8639 | –
x1 = 0.7998 | 0.847 | 0.716 | 0.614
x1 = 0.8084 | 0.8208 | 0.6658 | –
x1 = 0.9 | 0.623 | 0.537 | 0.466
x1 = 0.9064 | 0.5902 | 0.5049 | –
